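Compound exposure: 48 hours, 5 concentrations, 96-well plates. GI50 is the concentration that inhibits growth by half.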 Active and inactive are the calls of the source. Cut-off read from the data, not from the text of the source: active = GI50 up to about 1.1 µM and inactive = higher.
Assays:
Test in all cases: growth of human tumour cells (NCI), 48 h
EKVX = system: EKVX
HCC 2998 = system: HCC 2998
NCI-H23 = system: NCI-H23
786-0 = system: 786-0
SK-MEL-28 = system: SK-MEL-28
Malme-3M = system: Malme-3M
TK-10 = system: TK-10
HOP-62 = system: HOP-62
SK-MEL-5 = system: SK-MEL-5
RXF 393 = system: RXF 393
T47D = system: T47D
HL-60 = system: HL-60
UACC-257 = system: UACC-257
SNB-75 = system: SNB-75
UACC-62 = system: UACC-62
MDA-MB-231 = system: MDA-MB-231
CAKI-1 = system: CAKI-1
RPMI-8226 = system: RPMI-8226
PC-3 = system: PC-3
M14 = system: M14
A549 = system: A549
MCF7 = system: MCF7
K562 = system: K562
DU-145 = system: DU-145
MDA-N = system: MDA-N
OVCAR-8 = system: OVCAR-8
SF-268 = system: SF-268
CCRF-CEM = system: CCRF-CEM
SK-OV-3 = system: SK-OV-3
SR = system: SR
HT-29 = system: HT-29
LOX IMVI = system: LOX IMVI
HCT-15 = system: HCT-15
SF-295 = system: SF-295
MOLT-4 = system: MOLT-4
SW-620 = system: SW-620
KM12 = system: KM12
SN12C = system: SN12C
IGROV-1 = system: IGROV-1
U-251 = system: U-251
OVCAR-5 = system: OVCAR-5
NCI-H226 = system: NCI-H226
OVCAR-4 = system: OVCAR-4
ACHN = system: ACHN
COLO 205 = system: COLO 205
MDA-MB-435 = system: MDA-MB-435
SNB-19 = system: SNB-19
UO-31 = system: UO-31
NCI/ADR-RES = system: NCI/ADR-RES
Hs-578T = system: Hs-578T
HCT-116 = system: HCT-116
SF-539 = system: SF-539
SK-MEL-2 = system: SK-MEL-2
A498 = system: A498
NCI-H522 = system: NCI-H522
OVCAR-3 = system: OVCAR-3
HOP-92 = system: HOP-92
NCI-H460 = system: NCI-H460

Measured: GI50

CSc1nc(C)c(CCOC(C)=O)c(N=P(c2ccccc2)(c2ccccc2)c2ccccc2)n1
4.89 µM: HCT-15
inactive: EKVX > 10 µM | HCC 2998 > 10 µM | NCI-H23 3.77 µM | 786-0 > 10 µM | SK-MEL-28 > 10 µM | Malme-3M > 10 µM | TK-10 > 10 µM | HOP-62 7.94 µM | SK-MEL-5 6.81 µM | RXF 393 2.89 µM | T47D 4.24 µM | HL-60 2.82 µM | UACC-257 6.18 µM | SNB-75 4.28 µM | UACC-62 5.75 µM | MDA-MB-231 6.56 µM | CAKI-1 8.26 µM | RPMI-8226 3.14 µM | PC-3 2.53 µM | M14 5.61 µM | A549 5.12 µM | MCF7 3.49 µM | K562 3.42 µM | DU-145 > 10 µM | MDA-N 4.05 µM | OVCAR-8 4.88 µM | SF-268 4.12 µM | CCRF-CEM 3.89 µM | SK-OV-3 > 10 µM | SR 2.54 µM | HT-29 4.07 µM | LOX IMVI 1.33 µM | SF-295 > 10 µM | MOLT-4 2.11 µM | SW-620 4.97 µM | KM12 3.72 µM | SN12C 6.78 µM | IGROV-1 > 10 µM

O=C1/C(=C/c2ccccc2)N=C2Sc3c([nH]cnc3=O)N12
68.9 µM: HCT-15
inactive: EKVX > 100 µM | HCC 2998 > 100 µM | NCI-H23 > 100 µM | 786-0 > 100 µM | SK-MEL-28 > 100 µM | Malme-3M > 100 µM | TK-10 > 100 µM | HOP-62 > 100 µM | U-251 > 100 µM | OVCAR-5 > 100 µM | SK-MEL-5 > 100 µM | RXF 393 > 100 µM | NCI-H226 78.2 µM | T47D > 100 µM | HL-60 42.3 µM | OVCAR-4 35.1 µM | UACC-257 > 100 µM | ACHN > 100 µM | COLO 205 > 100 µM | SNB-75 > 100 µM | MDA-MB-435 60 µM | MDA-MB-231 > 100 µM | CAKI-1 > 100 µM | RPMI-8226 > 100 µM | PC-3 > 100 µM | SNB-19 > 100 µM | UO-31 > 100 µM | NCI/ADR-RES > 100 µM | M14 > 100 µM | A549 > 100 µM | MCF7 > 100 µM | Hs-578T 73.1 µM | K562 28.2 µM | HCT-116 > 100 µM | DU-145 > 100 µM | OVCAR-8 > 100 µM | SF-268 > 100 µM | CCRF-CEM > 100 µM | SF-539 > 100 µM | SK-OV-3 > 100 µM | SR 25.1 µM | HT-29 > 100 µM | LOX IMVI > 100 µM | SK-MEL-2 > 100 µM | A498 > 100 µM | SF-295 > 100 µM | MOLT-4 44.3 µM | SW-620 > 100 µM | KM12 > 100 µM | NCI-H522 > 100 µM | SN12C > 100 µM | OVCAR-3 > 100 µM | HOP-92 > 100 µM | IGROV-1 > 100 µM

O=C(CC(C(=O)c1ccsc1)c1ccc2c(c1)OCO2)c1ccccc1 (stereo not drawn)
active: NCI-H23 0.209 µM
inactive: EKVX > 100 µM | HCC 2998 > 100 µM | 786-0 > 100 µM | SK-MEL-28 > 100 µM | TK-10 > 100 µM | HOP-62 > 100 µM | U-251 > 100 µM | OVCAR-5 > 100 µM | SK-MEL-5 95.9 µM | RXF 393 > 100 µM | NCI-H226 > 100 µM | T47D 51.6 µM | HL-60 > 100 µM | OVCAR-4 > 100 µM | UACC-257 > 100 µM | ACHN > 100 µM | COLO 205 > 100 µM | SNB-75 > 100 µM | UACC-62 > 100 µM | MDA-MB-435 > 100 µM | CAKI-1 > 100 µM | RPMI-8226 > 100 µM | UO-31 > 100 µM | NCI/ADR-RES > 100 µM | M14 > 100 µM | A549 8.17 µM | MCF7 88.3 µM | Hs-578T > 100 µM | K562 > 100 µM | HCT-116 > 100 µM | DU-145 > 100 µM | MDA-N > 100 µM | OVCAR-8 > 100 µM | SF-268 > 100 µM | CCRF-CEM > 100 µM | SF-539 > 100 µM | SK-OV-3 > 100 µM | SR > 100 µM | HT-29 > 100 µM | LOX IMVI > 100 µM | A498 > 100 µM | NCI-H460 94 µM | SF-295 > 100 µM | MOLT-4 > 100 µM | SW-620 > 100 µM | KM12 > 100 µM | NCI-H522 59 µM | SN12C > 100 µM | OVCAR-3 > 100 µM | HOP-92 > 100 µM | IGROV-1 > 100 µM
> 100 µM: HCT-15

O=C(Nc1ccccc1)C(=O)C(C(=O)c1ccccc1)C(c1ccccc1)c1ccccc1 (stereo not drawn)
> 10 µM: HCT-15
inactive: EKVX > 10 µM | HCC 2998 > 10 µM | NCI-H23 > 10 µM | 786-0 > 10 µM | SK-MEL-28 > 10 µM | Malme-3M > 10 µM | TK-10 > 10 µM | HOP-62 > 10 µM | SK-MEL-5 > 10 µM | RXF 393 > 10 µM | T47D > 10 µM | HL-60 > 10 µM | OVCAR-4 > 10 µM | UACC-257 > 10 µM | COLO 205 > 10 µM | SNB-75 > 10 µM | UACC-62 > 10 µM | MDA-MB-435 > 10 µM | MDA-MB-231 > 10 µM | CAKI-1 > 10 µM | RPMI-8226 > 10 µM | PC-3 > 10 µM | M14 > 10 µM | A549 > 10 µM | MCF7 > 10 µM | K562 > 10 µM | DU-145 > 10 µM | MDA-N > 10 µM | OVCAR-8 > 10 µM | SF-268 > 10 µM | CCRF-CEM > 10 µM | SK-OV-3 > 10 µM | SR > 10 µM | HT-29 > 10 µM | LOX IMVI > 10 µM | SF-295 > 10 µM | MOLT-4 > 10 µM | SW-620 > 10 µM | SN12C > 10 µM | HOP-92 > 10 µM | IGROV-1 > 10 µM

N#Cc1ccc(/N=C(/NCC(=O)O)Nc2ccc3ccccc3c2)cc1
> 10 µM: HCT-15
inactive: EKVX > 10 µM | HCC 2998 > 10 µM | NCI-H23 > 10 µM | 786-0 > 10 µM | SK-MEL-28 > 10 µM | Malme-3M > 10 µM | TK-10 > 10 µM | HOP-62 > 10 µM | SK-MEL-5 > 10 µM | RXF 393 > 10 µM | T47D > 10 µM | HL-60 > 10 µM | UACC-257 > 10 µM | COLO 205 > 10 µM | SNB-75 > 10 µM | UACC-62 > 10 µM | MDA-MB-231 > 10 µM | CAKI-1 > 10 µM | RPMI-8226 > 10 µM | PC-3 > 10 µM | M14 > 10 µM | A549 > 10 µM | MCF7 > 10 µM | K562 > 10 µM | DU-145 > 10 µM | MDA-N > 10 µM | OVCAR-8 > 10 µM | SF-268 > 10 µM | CCRF-CEM > 10 µM | SK-OV-3 > 10 µM | SR > 10 µM | HT-29 > 10 µM | SF-295 > 10 µM | MOLT-4 > 10 µM | SW-620 > 10 µM | KM12 > 10 µM | SN12C > 10 µM | IGROV-1 > 10 µM

O=CNNC(=O)Nc1ccc(Cl)cc1
> 100 µM: HCT-15
inactive: EKVX > 100 µM | HCC 2998 > 100 µM | NCI-H23 > 100 µM | 786-0 > 100 µM | SK-MEL-28 > 100 µM | Malme-3M > 100 µM | TK-10 > 100 µM | HOP-62 > 100 µM | U-251 > 100 µM | OVCAR-5 > 100 µM | SK-MEL-5 > 100 µM | RXF 393 > 100 µM | NCI-H226 31.1 µM | T47D > 100 µM | HL-60 > 100 µM | OVCAR-4 > 100 µM | UACC-257 > 100 µM | ACHN > 100 µM | COLO 205 > 100 µM | SNB-75 > 100 µM | UACC-62 > 100 µM | MDA-MB-435 > 100 µM | MDA-MB-231 > 100 µM | RPMI-8226 > 100 µM | SNB-19 95.7 µM | UO-31 68.7 µM | NCI/ADR-RES > 100 µM | M14 > 100 µM | A549 > 100 µM | MCF7 > 100 µM | Hs-578T > 100 µM | K562 > 100 µM | HCT-116 > 100 µM | DU-145 > 100 µM | OVCAR-8 > 100 µM | SF-268 > 100 µM | CCRF-CEM > 100 µM | SF-539 > 100 µM | SK-OV-3 > 100 µM | SR > 100 µM | HT-29 > 100 µM | A498 29.6 µM | SF-295 33.7 µM | MOLT-4 > 100 µM | SW-620 > 100 µM | KM12 > 100 µM | SN12C > 100 µM | HOP-92 26.9 µM | IGROV-1 > 100 µM

Reference: ChEMBL document CHEMBL1201862, “PubChem BioAssay data set” (2004)
